# US6663858B1, “In Vivo gene transfer using implanted retroviral producer cells” (The Regents of the University of California, priority 1991, dated 2003)
# Where “and” joins values, the source holds several entries; their conditions need not be identical. Equal entries are not always repeated. Entries after “also recorded” stand apart in the source; their conditions may differ.
# Key:
# 9 L brain tumors [1] = experiment: Short-term (17 days) 9 L brain tumor volume after HSV-TK producer cell implantation and GCV; type: in vivo, Fischer 344 rats
# Description: (§1) Tumor Cell and Producer Cell Implantation. The 9 L cells were maintained in Dulbecco's modified Eagle's medium with 10% fetal bovine serum, penicillin G (100 units/ml), streptomycin sulfate (100 μg/ml). Brain tumors were established in adult female Fischer 344 rats which were housed and handled in accordance with National Institutes of Health guidelines.
# (§2) In all studies tumors were implanted by an intracerebral injection of 2×10^5 tumor cells into the region of the right caudate nucleus (3 mm lateral, 1 mm anterior to bregma, 4 mm ventral) (Paxinos, G. & Watson, C. (1987) The Rat Brain in Stereotaxic Coordinates (University Press ***).
# Animals in short-term studies underwent a second surgery 3 days after tumor implantation, at which time retroviral producer cells (either 2×10^5 in 4 μl or 2×10^6 in 8 μl, representing an equal, number (1×) or 10 times (10×) the number of injected tumor cells, respectively) were implanted into the established brain tumors and allowed to grow with brain tumor cells for 7 days. Ten days after tumor implantation, subsets of animals were given 0.2 ml intraperitoneal injections of GCV (Syntex, Palo Alto, Calif.) 50 mg/kg once a day for 7 or 14 days. Animals in the short-term experiments were sacrificed after 7 days of GCV administration (17 days after tumor implantation) and then perfused with 4% paraformaldehyde.
# Brain Tumor Analysis. Short-term treatment response was determined by comparing individual brain tumor volumes measured by postmortem stereologic study in groups containing a minimum of five animals.
# (§3) Long-term results were studied in 90-day survival studies with tumor volumes determined in long-term survivors. Stained brain sections were examined and tumor volumes were quantified by stereologic methods (Gundersen, H. J. G., Bagger, P. & Bendtsen, T. F. (1988) APMIS ***96, 857-881). Tumor volumes were compared by the Mann-Whitney U test. In long-term survival experiments (90 days), animals were observed daily and survival data were analyzed by Kaplan-Meier analysis with the Mantel-Cox statistic.
# 9 L brain tumors [2] = experiment: Long-term (90-day) survival of rats with 9 L brain tumors after HSV-TK producer cells and GCV; type: in vivo, Fischer 344 rats; details: for treated animals surviving 90 days: both long-term trials combined, HSV-TK producer cells plus GCV
# Description: as §1, §2
# Two trials of long-term (90-day) survival were performed. In the first, producer cells (2×10^5), equal to the initial number of tumor cells implanted) were grafted into 3-day-old brain tumors. GCV treatments were started in 12 animals 7 days later (tumor day 10) and continued for 7 days; 8 animals received no GCV. In the second trial, 2×10^5 or 2×10^6 producer cells in 50 μl (representing 1× or 10× the number of injected tumor cells, respectively) were grafted into 3-day-old established brain tumors of 10 animals per group. GCV treatments started 7 days later and were administered for 14 days.
# as §3
# 9 L tumor cells = experiment: Repeat tumor challenge in long-term survivors; type: in vivo, Fischer 344 rats
# Excerpt: Repeat Tumor Challenge. Four animals with long-term tumor regression were studied with repeat tumor challenges 90 days after the initial tumor implantation. Animals underwent repeated intracerebral injections of 2×10^5 9 L tumor cells into the left caudate nucleus and injections of 1×10^6 9 L tumor cells into the right flank. Five normal, naive rats received identical injections of 9 L tumor cells. Animals were sacrificed and perfused 17 days later to determine resulting tumor volumes.
# 9 L brain tumors [3] = details: no producer cell injections; Barba et al. 1993; cited from earlier work
# [4] = test system: C6 glial tumor cells infected with STK, NTK or μTK vector; experiment: Survival of C6 glioma clones carrying HSV-TK vectors in increasing concentrations of acyclovir; type: cell-based; details: C6 clones infected with each vector (STK, NTK, μTK); acyclovir 0.1 to 100 μg/ml for 3 days
# Description: Murine retroviral vectors carrying the HSV-TK gene, the STK, NTK, and μTK vectors, were obtained from Dr. F. L. Moolten. The plasmid forms of the vectors were transfected into −2 cells (Mann et al., Cell 33:153-159 (1983)); selection with 1 mg/ml of the neomycin analog G418 permitted the isolation of clone producer lines that yielded viruses capable of transducing G418 resistance and HSV-TK activity. Virus titers were determined by the limiting dilution method and found to be greater than 50 pfu/cell. As expected with −2 cells, no replication-competent virus was detected.
# The replicative defective viruses produced by −2 cells were used to infect C6 glial tumor cells. The cells to be infected were grown in DME plus 10% fetal bovine serum plus 4 μg/ml of polybrene and were grown to about 60-70% confluence in a T75 flask or about 2×10^6 cells/ml. The cells were infected with about 100 pfu/cell of virus. The infected cells were cultured for 24 hours with Dulbecco's Medium containing 10% fetal bovine serum and antibiotics; afterwards they were exposed to 1 mg of G418/ml to select for cells that expressed vector-derived genes.
# Clones resulting from infection of C6 glial cells with each of the vectors were exposed to acyclovir at concentrations ranging from 0.1 to 100 μg/ml for 3 days. Each vector rendered the glial cells sensitive to acyclovir.
# cells carrying HSV-TK = experiment: 3-day cytotoxicity assay, cells carrying HSV-TK; type: cell-based; details: 72 h, read-out: inhibitory dose for 50% of the cells
# Description: (§4) Similar results were obtained in a 3-day cytotoxicity assay; the inhibitory dose of acyclovir for 50% of the cells lacking the HSV-TK gene was greater than […] for cells carrying HSV-TK.
# [5] = test system: cells lacking the HSV-TK gene; experiment: 3-day cytotoxicity assay, cells lacking the HSV-TK gene; type: cell-based; details: 72 h, read-out: inhibitory dose for 50% of the cells
# Description: as §4
# [6] = HSV-TK producer cells plus GCV, 17-day-old tumors
Compound,"tumor volume / tumor regression versus rats not treated with GCV (9 L brain tumors [1]; HSV-TK producer cells (1:1 or 10:1) implanted day 3, GCV 50 mg/kg per day i.p. for 7 days, day 17)",treated animals with focal regression of part of the tumor adjacent to unaffected tumor (9 L brain tumors [1]; [6]),treated animals with unaffected tumors (9 L brain tumors [1]; [6]),"animals alive after 90 days in each experimental group, second trial (9 L brain tumors [2]; 1× or 10× producer cells, 10 animals per group, GCV for 14 days)","treated animals surviving 90 days, first trial (9 L brain tumors [2]; 2×10^5 producer cells, GCV for 7 days from tumor day 10, none of 8 untreated survived longer than 25 days)","tumor volume in the third surviving treated animal, first trial (9 L brain tumors [2]; 90 days) [mm^3]","residual tumor volume in two of the surviving treated animals, first trial (9 L brain tumors [2]; 90 days, small intracerebral cysts) [mm^3]","survival, GCV for 7 versus 14 days (9 L brain tumors [2]; both groups receiving 1× producer cells)","survival, 1× versus 10× producer cells (9 L brain tumors [2]; both groups receiving GCV for 14 days)",treated animals surviving 90 days (9 L brain tumors [2]) [%],treated animals surviving 90 days (9 L brain tumors [2]; controls 0/8),"survival of treated versus control animals (9 L brain tumors [2]; combined treated groups, Kaplan-Meier, P<0.002)","flank tumor nodules after repeat challenge (9 L tumor cells; 1×10^6 9 L cells into right flank, 17 days, flank tumors in four of five naive rats)","tumor volume at the site of the secondary tumor cell implants (left hemisphere) (9 L tumor cells; 2×10^5 9 L cells, 17 days after repeat challenge, naive animals 129-169) [mm^3]","tumor volume at the site of the initial tumor cell implantation in long-term survivors (9 L tumor cells; four long-term survivors of second trial, 17 days after repeat challenge)","growth of repeat tumor injections in rats surviving 90 days (9 L tumor cells; repeat 9 L injections after HSV-TK producer cells and GCV, tumors grew in naive rats)",tumor regression in animals treated with GCV without producer cell injections (9 L brain tumors [3]),"sensitivity of glial cells to acyclovir (survival, FIG. 2) [4]",IC50 (cells carrying HSV-TK) [µg/mL],IC50 [5] [µg/mL]
"Nc1nc2c(ncn2COC(CO)CO)c(=O)[nH]1 [GCV, 9-((2-hydroxy-1-(hydroxymethyl)ethoxy)methyl) guanine]",Significant tumor regression; also recorded: significantly smaller,about 50%,about 10%,two,3 of 12,62,< 0.2,no difference,No difference in survival,22,7 of 32 and 7/32,highly significant difference; also recorded: significant improvement in survival,failed to detect any tumor nodules,< 0.2,0.6-2.0 mm^3,rejected repeat tumor injections; also recorded: absence of growth of injected tumor cells; also recorded: inhibition of growth of the injected tumor cells,not seen,–,–,–
"Nc1nc2c(ncn2COCCO)c(=O)[nH]1 [acyclovir, 9-((2-hydroxyethoxy)methyl)guanine]",–,–,–,–,–,–,–,–,–,–,–,–,–,–,–,–,–,sensitive,0.5,> 10
